The values that follow come from patent EP0381989A1, “New 4'-epi-4'-amino anthracyclines” (FARMITALIA CARLO ERBA S.r.l., priority 1989, dated 1990).

The subject of series [1] is LoVo (human colon adenocarcinoma). Description: in vitro cytotoxicity (colony growth inhibition) on LoVo cells. The settings on record: for IC50: Homo sapiens, LoVo, 4 h, read-out: Cytotoxicity after 4h of treatment (IC50) LoVo; for Cytotoxicity after 4h of treatment (IC50) LoVo: lovo cells. Here is the method: (§1) The biological activity of the compounds according to the inventio was tested in vitro against LoVo (human colon adenocarcinoma) and LoVo/DX cells in comparison with doxorubicin and 4-demethoxydaunorubicin (4-dem-DNR). Table 1. Table 1 -

Another series relates to LoVo/DX cells. Description: in vitro cytotoxicity (colony growth inhibition) on LoVo/DX cells. The settings on record: for IC50: Homo sapiens, LoVo/DX, read-out: Cytotoxicity after 4h of treatment (IC50) LoVo/DX; for IC50 / Cytotoxicity after 4h of treatment (IC50) LoVo/DX: 4 h; for R.I. = Resistance Index = (IC50 LoVo.DX)/(IC50 LoVo): ratio of IC50 on LoVo/DX to IC50 on LoVo, 4h of treatment; for Cytotoxicity after 4h of treatment (IC50) LoVo/DX: lovo/dx cells. On the procedure: as §1

In brackets after ≈: the same amount, converted by molar mass.

On to `CC(=O)[C@]1(O)Cc2c(O)c3c(c(O)c2[C@@H](O[C@H]2CC[C@@H](N)[C@H](C)O2)C1)C(=O)c1c(O)cccc1C3=O` [1a, 4-demethyl-3′-deamino-4′-deoxy-4′-epi-amino-daunorubicin], for which, in series [1], the IC50 came to 0.0011 µg/mL (≈ 0.00221 µM). For the same compound, in the series with LoVo/DX cells, the IC50 was found to be 0.0027 µg/mL (≈ 0.00543 µM) and the “R.I. = Resistance Index = (IC50 LoVo.DX)/(IC50 LoVo)” value (shortened to “R.I. = Resistance Index =”) was 2.4.

For `COc1cccc2c1C(=O)c1c(O)c3c(c(O)c1C2=O)C[C@@](O)(C(=O)CO)C[C@@H]3O[C@H]1C[C@H](N)[C@H](O)[C@H](C)O1` [Doxorubicin, doxorubicin, reference compound], in series [1], the IC50 was 0.06 µg/mL (≈ 0.11 µM). Besides, in the series with LoVo/DX cells, the IC50 was 2.18 µg/mL (≈ 4.01 µM) and the “R.I. = Resistance Index =” value stood at 36.

With `C[C@@H]1O[C@@H](O[C@H]2C[C@](O)(C(=O)CO)Cc3c(N)c4c(c(O)c32)C(=O)c2ccccc2C4=O)CC[C@H]1N` [2g, 4-demethoxy-11-deoxy-11-amino-3′-deamino-4′-deoxy-4′-epi-amino-doxorubicin], the IC50 in series [1] was determined as 0.0188 µg/mL (≈ 0.0379 µM). Moreover, in the series on LoVo/DX cells, the IC50 is 0.109 µg/mL (≈ 0.22 µM) and the “R.I. = Resistance Index =” value is recorded as 5.8.

Regarding “4-demethoxy-6-deoxy-6-amino-3′-deamino-4′-deoxy-4′-epi-amino-daunorubicin [1h]”, the “Cytotoxicity after 4h of treatment (IC50) LoVo” value in series [1] turned out to be 0.004 µg/mL. Moreover, in the series with LoVo/DX cells, the “Cytotoxicity after 4h of treatment (IC50) LoVo/DX” value stood at 0.0086 µg/mL and the “R.I. = Resistance Index =” value was 2.2.

As for `C[C@@H]1O[C@@H](O[C@H]2C[C@](O)(C(=O)CO)Cc3c(O)c4c(c([N+](=O)[O-])c32)C(=O)c2ccccc2C4=O)CC[C@H]1N` [2f, 4-demethoxy-6-deoxy-6-nitro-3′-deamino-4′-deoxy-4′-epi-amino-doxorubicin], the results for the IC50 (in series [1]; in the series on LoVo/DX cells) were 0.116 µg/mL (≈ 0.22 µM) and 2.26 µg/mL (≈ 4.28 µM), respectively. For the same compound, the “R.I. = Resistance Index =” value in the series with LoVo/DX cells stood at 19.4.

For “4-demethyl-6-deoxy-3′-deamino-4′-deoxy-4′-epi-amino-doxorubicin [2d]”, the “Cytotoxicity after 4h of treatment (IC50) LoVo” value in series [1] amounted to 0.0012 µg/mL. In the series with LoVo/DX cells, the “Cytotoxicity after 4h of treatment (IC50) LoVo/DX” value amounted to 0.0038 µg/mL and the “R.I. = Resistance Index =” value came out at 3.2.

On to `C[C@@H]1O[C@@H](O[C@H]2C[C@](O)(C(=O)CO)Cc3c2c(O)c2c(c3[N+](=O)[O-])C(=O)c3ccccc3C2=O)CC[C@H]1N` [2e, 4-demethoxy-11-deoxy-11-nitro-3′-deamino-4′-deoxy-4′-epi-amino-doxorubicin], for which the IC50 in series [1] came to 0.0484 µg/mL (≈ 0.0919 µM). For the same compound, in the series with LoVo/DX cells, the IC50 was determined as 0.205 µg/mL (≈ 0.389 µM) and the “R.I. = Resistance Index =” value stood at 4.2.

Regarding `CC(=O)[C@]1(O)Cc2c(O)c3c(c(O)c2[C@@H](O[C@H]2C[C@H](N)[C@H](O)[C@H](C)O2)C1)C(=O)c1ccccc1C3=O` [4-dem-DNR, 4-demethoxydaunorubicin, reference compound], the IC50 in series [1] was 0.02 µg/mL (≈ 0.0402 µM). For the same compound, in the series with LoVo/DX cells, the IC50 was 0.125 µg/mL (≈ 0.251 µM) and the “R.I. = Resistance Index =” value turned out to be 6.

Regarding `C[C@@H]1O[C@@H](O[C@H]2C[C@](O)(C(=O)CO)Cc3c(O)c4c(c(N)c32)C(=O)c2ccccc2C4=O)CC[C@H]1N` [2h, 4-demethoxy-6-deoxy-6-amino-3′-deamino-4′-deoxy-4′-epi-amino-doxorubicin], in series [1], the IC50 amounted to 0.0062 µg/mL (≈ 0.0125 µM). Also, in the series on LoVo/DX cells, the IC50 worked out at 0.09 µg/mL (≈ 0.181 µM) and the “R.I. = Resistance Index =” value turned out to be 14.5.

Regarding `CC(=O)[C@]1(O)Cc2c(O)c3c(c(O)c2[C@@H](O[C@H]2CC[C@@H](N)[C@H](C)O2)C1)C(=O)c1c(F)cccc1C3=O` [1c, 4-demethoxy-4-fluoro-3′-deamino-4′-deoxy-4′-epi-amino-daunorubicin], in series [1], the IC50 came to 0.0012 µg/mL (≈ 0.0024 µM). For the same compound, in the series on LoVo/DX cells, the IC50 stood at 0.006 µg/mL (≈ 0.012 µM) and the “R.I. = Resistance Index =” value worked out at 5.0.
